Results taken from publication PMC10507085, “Pharmacological inhibition of TBK1/IKKε blunts immunopathology in a murine model of SARS-CoV-2 infection” (Nature Communications, 2023).

Key:
Assay in all cases: biochemical
Parameters in all cases: KINOMEscan competition binding, DNA-tagged kinase against immobilised ligand, qPCR read-out
Conditions in all cases: read-out: Percent Control
[1] = target: MAPK12 (Homo sapiens, UniProt P53778)
[2] = target: T1, RSK2(Kin.Dom.1-N-terminal) (Homo sapiens, UniProt P51812)
T1 construct: gene RPS6KA3; Kin.Dom.1 N-terminal

[3] = target: MYO3A (Homo sapiens, UniProt Q8NEV4)
[4] = target: MST1R (Homo sapiens, UniProt Q04912)
[5] = target: NEK1 (Homo sapiens, UniProt Q96PY6)
[6] = target: BMP2K (Homo sapiens, UniProt Q9NSY1)
[7] = target: EPHA6 (Homo sapiens, UniProt Q9UF33)
EPHA6, sequence (Q9UF33 whole entry): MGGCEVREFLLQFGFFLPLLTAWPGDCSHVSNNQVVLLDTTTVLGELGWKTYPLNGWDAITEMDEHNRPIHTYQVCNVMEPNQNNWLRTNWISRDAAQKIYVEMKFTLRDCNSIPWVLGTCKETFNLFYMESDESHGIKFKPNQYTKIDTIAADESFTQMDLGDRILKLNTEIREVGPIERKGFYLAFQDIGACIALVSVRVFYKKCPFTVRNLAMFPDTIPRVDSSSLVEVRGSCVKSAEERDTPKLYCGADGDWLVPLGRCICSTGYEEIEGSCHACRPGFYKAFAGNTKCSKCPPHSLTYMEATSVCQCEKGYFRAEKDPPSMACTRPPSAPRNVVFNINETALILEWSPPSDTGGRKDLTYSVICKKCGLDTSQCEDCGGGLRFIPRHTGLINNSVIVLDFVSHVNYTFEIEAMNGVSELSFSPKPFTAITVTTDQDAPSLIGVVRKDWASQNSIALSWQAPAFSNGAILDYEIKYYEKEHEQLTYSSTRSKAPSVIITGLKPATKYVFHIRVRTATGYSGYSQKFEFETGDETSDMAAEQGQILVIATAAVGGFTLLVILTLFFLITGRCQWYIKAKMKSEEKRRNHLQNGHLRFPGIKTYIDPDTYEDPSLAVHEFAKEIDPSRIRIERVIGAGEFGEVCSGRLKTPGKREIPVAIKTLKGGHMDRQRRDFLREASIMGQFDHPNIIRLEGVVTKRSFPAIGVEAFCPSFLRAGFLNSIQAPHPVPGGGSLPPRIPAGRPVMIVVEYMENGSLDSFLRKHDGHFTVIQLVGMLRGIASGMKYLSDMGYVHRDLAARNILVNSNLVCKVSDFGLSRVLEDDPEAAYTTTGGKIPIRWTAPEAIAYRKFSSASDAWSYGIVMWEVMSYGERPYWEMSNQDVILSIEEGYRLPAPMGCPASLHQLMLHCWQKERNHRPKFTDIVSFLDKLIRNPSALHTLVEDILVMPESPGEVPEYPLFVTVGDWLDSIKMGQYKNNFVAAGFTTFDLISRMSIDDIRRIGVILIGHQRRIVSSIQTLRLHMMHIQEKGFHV

[8] = target: CAMK1G (Homo sapiens, UniProt Q96NX5)
CAMK1G, sequence (Q96NX5 whole entry): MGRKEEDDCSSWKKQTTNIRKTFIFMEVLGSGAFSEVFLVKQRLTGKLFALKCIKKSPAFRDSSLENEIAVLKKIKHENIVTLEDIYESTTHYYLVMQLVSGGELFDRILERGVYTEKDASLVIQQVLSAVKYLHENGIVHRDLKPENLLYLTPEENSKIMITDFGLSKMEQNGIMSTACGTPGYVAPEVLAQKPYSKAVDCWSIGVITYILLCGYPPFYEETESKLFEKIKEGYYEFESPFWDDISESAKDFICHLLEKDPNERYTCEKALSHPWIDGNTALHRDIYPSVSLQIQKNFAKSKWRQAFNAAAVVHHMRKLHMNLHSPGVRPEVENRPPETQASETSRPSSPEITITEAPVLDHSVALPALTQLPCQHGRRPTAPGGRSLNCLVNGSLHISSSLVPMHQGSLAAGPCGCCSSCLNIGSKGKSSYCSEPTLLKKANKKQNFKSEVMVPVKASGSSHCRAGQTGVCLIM

[9] = target: MYO3B (Homo sapiens, UniProt Q8WXR4)
[10] = target: ITK (Homo sapiens, UniProt Q08881)
[11] = target: ROCK1 (Homo sapiens, UniProt Q13464)
[12] = target: FRK (Homo sapiens, UniProt P42685)
FRK, sequence (P42685 whole entry): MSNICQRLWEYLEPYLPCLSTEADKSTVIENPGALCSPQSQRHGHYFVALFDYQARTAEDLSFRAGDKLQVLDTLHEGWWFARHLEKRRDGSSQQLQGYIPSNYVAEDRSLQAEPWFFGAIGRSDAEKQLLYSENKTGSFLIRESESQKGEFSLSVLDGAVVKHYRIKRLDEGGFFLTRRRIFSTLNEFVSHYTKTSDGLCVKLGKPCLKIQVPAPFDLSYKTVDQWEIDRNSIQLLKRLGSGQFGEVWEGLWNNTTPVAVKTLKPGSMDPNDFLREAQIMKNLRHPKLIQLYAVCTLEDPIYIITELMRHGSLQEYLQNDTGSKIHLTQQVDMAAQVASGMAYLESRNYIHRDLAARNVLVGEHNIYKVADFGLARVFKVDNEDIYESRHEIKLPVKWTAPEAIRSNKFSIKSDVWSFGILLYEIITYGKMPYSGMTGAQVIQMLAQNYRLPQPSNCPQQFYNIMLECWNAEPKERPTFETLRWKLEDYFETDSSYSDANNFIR

[13] = target: GRK7 (Homo sapiens, UniProt Q8WTQ7)
GRK7, sequence (Q8WTQ7 whole entry): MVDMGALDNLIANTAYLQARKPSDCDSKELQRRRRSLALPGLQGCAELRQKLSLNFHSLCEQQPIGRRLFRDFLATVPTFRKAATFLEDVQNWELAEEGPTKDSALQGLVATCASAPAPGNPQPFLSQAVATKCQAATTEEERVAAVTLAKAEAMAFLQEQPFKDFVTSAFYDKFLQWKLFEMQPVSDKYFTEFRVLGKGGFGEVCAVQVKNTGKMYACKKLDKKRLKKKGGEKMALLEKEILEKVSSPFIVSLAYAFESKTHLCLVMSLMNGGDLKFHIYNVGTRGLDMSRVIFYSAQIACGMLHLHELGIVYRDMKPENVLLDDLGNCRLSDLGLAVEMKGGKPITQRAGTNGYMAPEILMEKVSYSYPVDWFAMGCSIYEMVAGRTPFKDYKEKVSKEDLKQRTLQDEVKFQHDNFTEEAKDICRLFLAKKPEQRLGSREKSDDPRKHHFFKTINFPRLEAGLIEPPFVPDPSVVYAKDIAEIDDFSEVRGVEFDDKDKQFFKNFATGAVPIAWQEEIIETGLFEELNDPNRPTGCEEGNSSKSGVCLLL

[14] = target: MAP2K6 (Homo sapiens, UniProt P52564)
MAP2K6, sequence (P52564 whole entry): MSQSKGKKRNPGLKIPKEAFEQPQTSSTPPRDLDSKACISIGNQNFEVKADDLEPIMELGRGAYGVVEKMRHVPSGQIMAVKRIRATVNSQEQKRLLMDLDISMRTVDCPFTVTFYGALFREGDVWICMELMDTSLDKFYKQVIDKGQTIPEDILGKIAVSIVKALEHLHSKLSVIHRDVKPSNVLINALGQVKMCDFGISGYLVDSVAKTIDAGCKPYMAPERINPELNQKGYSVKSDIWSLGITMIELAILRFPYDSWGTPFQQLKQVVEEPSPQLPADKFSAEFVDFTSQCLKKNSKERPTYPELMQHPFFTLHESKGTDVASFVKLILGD

[15] = target: CDK13 (Homo sapiens, UniProt Q14004)
CDK13, sequence (Q14004 whole entry): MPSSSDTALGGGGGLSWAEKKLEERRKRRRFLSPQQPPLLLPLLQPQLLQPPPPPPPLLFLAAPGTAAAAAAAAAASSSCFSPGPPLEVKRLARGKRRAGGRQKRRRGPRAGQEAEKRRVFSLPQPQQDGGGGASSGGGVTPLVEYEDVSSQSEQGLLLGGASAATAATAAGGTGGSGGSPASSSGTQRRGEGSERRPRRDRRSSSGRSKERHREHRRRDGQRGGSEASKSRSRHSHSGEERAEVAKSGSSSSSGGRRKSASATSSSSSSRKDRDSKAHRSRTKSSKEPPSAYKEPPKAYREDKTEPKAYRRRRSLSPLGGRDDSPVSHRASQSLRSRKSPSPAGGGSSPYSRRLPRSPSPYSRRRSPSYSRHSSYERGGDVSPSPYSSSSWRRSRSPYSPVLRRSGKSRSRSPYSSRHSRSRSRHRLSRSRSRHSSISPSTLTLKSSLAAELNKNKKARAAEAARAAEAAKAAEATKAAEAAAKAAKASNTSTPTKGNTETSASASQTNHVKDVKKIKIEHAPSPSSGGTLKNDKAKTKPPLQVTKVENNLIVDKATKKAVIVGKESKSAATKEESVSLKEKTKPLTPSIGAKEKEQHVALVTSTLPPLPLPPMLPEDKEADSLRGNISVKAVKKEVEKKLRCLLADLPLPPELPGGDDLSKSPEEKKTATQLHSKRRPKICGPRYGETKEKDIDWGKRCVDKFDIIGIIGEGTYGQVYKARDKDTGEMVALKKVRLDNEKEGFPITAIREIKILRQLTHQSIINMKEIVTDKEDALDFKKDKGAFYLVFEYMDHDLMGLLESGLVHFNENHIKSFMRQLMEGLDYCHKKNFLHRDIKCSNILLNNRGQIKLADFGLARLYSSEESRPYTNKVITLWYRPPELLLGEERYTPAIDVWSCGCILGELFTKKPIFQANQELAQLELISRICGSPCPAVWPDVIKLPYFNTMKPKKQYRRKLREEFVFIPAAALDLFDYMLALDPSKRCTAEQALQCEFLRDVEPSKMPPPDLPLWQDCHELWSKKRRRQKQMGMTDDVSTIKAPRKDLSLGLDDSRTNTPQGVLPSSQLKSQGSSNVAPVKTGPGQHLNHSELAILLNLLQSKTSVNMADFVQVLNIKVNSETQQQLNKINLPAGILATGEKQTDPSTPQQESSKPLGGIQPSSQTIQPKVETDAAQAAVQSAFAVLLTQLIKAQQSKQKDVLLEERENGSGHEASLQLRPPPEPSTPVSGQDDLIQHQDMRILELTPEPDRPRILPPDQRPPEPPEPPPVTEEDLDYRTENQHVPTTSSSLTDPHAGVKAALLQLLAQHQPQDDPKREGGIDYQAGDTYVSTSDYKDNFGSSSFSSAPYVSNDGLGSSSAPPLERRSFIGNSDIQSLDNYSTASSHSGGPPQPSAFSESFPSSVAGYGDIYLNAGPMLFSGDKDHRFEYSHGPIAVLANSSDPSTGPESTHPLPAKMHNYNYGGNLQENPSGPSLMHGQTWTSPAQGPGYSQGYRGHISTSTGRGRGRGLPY

[16] = target: ALK (Homo sapiens, UniProt Q9UM73)
[17] = target: T2, JAK3(JH1domain-catalytic) (Homo sapiens, UniProt P52333)
T2 construct: JH1 domain catalytic

[18] = target: NEK2 (Homo sapiens, UniProt P51955)
[19] = target: PRKD2 (Homo sapiens, UniProt Q9BZL6)
[20] = target: TESK1 (Homo sapiens, UniProt Q15569)

MAPK12, sequence (P53778 whole entry): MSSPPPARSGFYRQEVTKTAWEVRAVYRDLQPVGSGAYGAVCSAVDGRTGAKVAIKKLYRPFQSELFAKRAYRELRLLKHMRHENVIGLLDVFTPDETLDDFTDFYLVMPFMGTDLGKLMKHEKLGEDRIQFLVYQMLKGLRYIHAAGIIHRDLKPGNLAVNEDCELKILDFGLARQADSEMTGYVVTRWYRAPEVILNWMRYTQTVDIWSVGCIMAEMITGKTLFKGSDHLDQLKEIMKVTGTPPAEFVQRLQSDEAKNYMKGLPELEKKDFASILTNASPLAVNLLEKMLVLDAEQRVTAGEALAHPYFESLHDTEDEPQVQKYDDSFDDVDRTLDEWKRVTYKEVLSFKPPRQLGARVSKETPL

**Q.** Which remaining binding at 10 µM [1] does the source give for `Oc1ccc(C2=Cc3ccc(O)cc3OC2)cc1` [compound 1, idronoxil] here?
**A.** Its remaining binding at 10 µM is 100%.

**Q.** And the remaining binding at 10 µM [2]?
**A.** Its remaining binding at 10 µM is 57%.

**Q.** And the remaining binding at 10 µM [3]?
**A.** The remaining binding at 10 µM was 91%.

**Q.** What about the remaining binding at 10 µM [4] of the same molecule?
**A.** The remaining binding at 10 µM was 100%.

**Q.** What about the remaining binding at 10 µM [5] of the same molecule?
**A.** Its remaining binding at 10 µM is 71%.

**Q.** What about the remaining binding at 10 µM [6] of the same molecule?
**A.** Its remaining binding at 10 µM is 86%.

**Q.** What about the remaining binding at 10 µM [7] of the same molecule?
**A.** Its remaining binding at 10 µM is 99%.

**Q.** What about the remaining binding at 10 µM [8] of the same molecule?
**A.** Its remaining binding at 10 µM is 80%.

**Q.** And the remaining binding at 10 µM [9]?
**A.** Its remaining binding at 10 µM is 100%.

**Q.** And the remaining binding at 10 µM [10]?
**A.** Its remaining binding at 10 µM is 97%.

**Q.** And the remaining binding at 10 µM [11]?
**A.** The remaining binding at 10 µM was 85%.

**Q.** What about the remaining binding at 10 µM [12] of the same molecule?
**A.** Its remaining binding at 10 µM is 78%.

**Q.** And the remaining binding at 10 µM [13]?
**A.** The remaining binding at 10 µM was 100%.

**Q.** What about the remaining binding at 10 µM [14] of the same molecule?
**A.** The remaining binding at 10 µM was 85%.

**Q.** What about the remaining binding at 10 µM [15] of the same molecule?
**A.** The remaining binding at 10 µM was 100%.

**Q.** And the remaining binding at 10 µM [16]?
**A.** Its remaining binding at 10 µM is 68%.

**Q.** What about the remaining binding at 10 µM [17] of the same molecule?
**A.** Its remaining binding at 10 µM is 52%.

**Q.** And the remaining binding at 10 µM [18]?
**A.** The remaining binding at 10 µM was 100%.

**Q.** And the remaining binding at 10 µM [19]?
**A.** The remaining binding at 10 µM was 94%.

**Q.** What about the remaining binding at 10 µM [20] of the same molecule?
**A.** Its remaining binding at 10 µM is 86%.
